Reference: ChEMBL document CHEMBL5537165, “Hepatitis C: The Story of a Long Journey through First, Second, and Third Generation NS3/4A Peptidomimetic Inhibitors. What Did We Learn?” (J Med Chem, 2024)
“And” between values parts separate entries of the source, which are not always exact repeats. Equal values may be shown once.

Assays:
[1] = tested on: RNA; assay: Inhibition of Hepatitis C virus RNA; type: nucleic-acid assay, Hepacivirus hominis
[2] = molecular target: T1, Non-structural protein 4b (Hepacivirus hominis, UniProt F5B4I0); assay: Binding affinity to Hepatitis C virus genotype 1a NS4B assessed as inhibition constant
T1 sequence (F5B4I0 whole entry): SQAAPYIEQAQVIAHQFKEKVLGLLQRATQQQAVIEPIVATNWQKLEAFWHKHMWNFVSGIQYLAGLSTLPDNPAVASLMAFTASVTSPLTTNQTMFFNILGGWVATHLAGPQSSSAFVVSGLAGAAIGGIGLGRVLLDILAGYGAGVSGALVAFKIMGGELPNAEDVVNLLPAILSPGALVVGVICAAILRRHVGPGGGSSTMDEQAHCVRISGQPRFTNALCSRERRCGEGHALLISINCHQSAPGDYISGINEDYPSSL

[3] = molecular target: T1, Non-structural protein 4b; assay: Binding affinity to Hepatitis C virus genotype 2b NS4B assessed as inhibition constant
[4] = molecular target: T1, Non-structural protein 4b; assay: Binding affinity to Hepatitis C virus genotype 3a NS4B assessed as inhibition constant
[5] = molecular target: T1, Non-structural protein 4b; assay: Inhibition of Hepatitis C virus genotype 1b NS4B
[6] = Oral bioavailability in Sprague-Dawley rat; type: ADME, organism-based; conditions: in vivo
[7] = Oral bioavailability in Beagle dog at 2 mg/kg; type: ADME, organism-based, Canis lupus familiaris; conditions: in vivo
[8] = AUC in Sprague-Dawley rat at 2 mg/kg, po; type: ADME, organism-based; conditions: in vivo
[9] = molecular target: T1, Non-structural protein 4b; assay: Binding affinity to Hepatitis C virus genotype 1b NS4B assessed as inhibition constant
[10] = molecular target: T1, Non-structural protein 4b; assay: Inhibition of Hepatitis C virus genotype 3a NS4B
[11] = molecular target: T1, Non-structural protein 4b; assay: Inhibition of Hepatitis C virus genotype 2b NS4B
[12] = molecular target: T1, Non-structural protein 4b; assay: Inhibition of Hepatitis C virus genotype 1a NS4B
[13] = Half life in Sprague-Dawley rat at 5 mg/kg, po by LC-MS/MS analysis; type: ADME, organism-based; conditions: in vivo
[14] = Half life in Beagle dog at 5 mg/kg, po by LC-MS/MS analysis; type: ADME, organism-based, Canis lupus familiaris; conditions: in vivo
[15] = molecular target: Hepatitis C virus NS5B RNA-dependent RNA polymerase (Hepatitis C virus, UniProt Q8JXU8); assay: Binding affinity to Hepatitis C virus genotype 2a NS5B polymerase assessed as inhibition constant
Sequence of Hepatitis C virus NS5B RNA-dependent RNA polymerase (Q8JXU8 whole entry): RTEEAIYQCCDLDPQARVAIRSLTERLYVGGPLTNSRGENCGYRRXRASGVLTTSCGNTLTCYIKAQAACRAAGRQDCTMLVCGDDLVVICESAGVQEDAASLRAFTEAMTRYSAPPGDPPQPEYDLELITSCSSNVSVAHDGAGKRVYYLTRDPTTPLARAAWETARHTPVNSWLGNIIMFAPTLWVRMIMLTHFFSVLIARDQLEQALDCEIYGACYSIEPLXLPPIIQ

[16] = molecular target: T1, Non-structural protein 4b; assay: Binding affinity to Hepatitis C virus genotype 4a NS4B assessed as inhibition constant
[17] = molecular target: T1, Non-structural protein 4b; assay: Binding affinity to Hepatitis C virus genotype 6a NS4B assessed as inhibition constant
[18] = molecular target: T1, Non-structural protein 4b; assay: Inhibition of Hepatitis C virus genotype 4a NS4B
[19] = molecular target: T1, Non-structural protein 4b; assay: Inhibition of Hepatitis C virus genotype 5a NS4B
[20] = molecular target: T1, Non-structural protein 4b; assay: Inhibition of Hepatitis C virus genotype 6a NS4B
[21] = tested on: Hepatitis C virus; assay: Antiviral activity against HCV assessed as inhibition of RNA replication; type: functional, organism-based, Hepacivirus hominis
[22] = molecular target: T1, Non-structural protein 4b; assay: Inhibition of Hepatitis C virus genotype 3a NS4B expressed in Escherichia coli
[23] = tested on: SARS-CoV-2; assay: Antiviral activity against SARS-CoV-2 infected in African green monkey Vero cells assessed as reduction in viral replication measured after 72 hrs by qRT-PCR analysis; type: functional, organism-based; conditions: Severe acute respiratory syndrome coronavirus 2, Vero
[24] = tested on: Hepatitis C virus; assay: Antiviral activity against Hepatitis C virus genotype 1a infected in human Huh-7 cells assessed as reduction in viral infection; type: functional, organism-based, Hepacivirus hominis
[25] = tested on: Hepatitis C virus; assay: Antiviral activity against Hepatitis C virus genotype 1b infected in human Huh-7 cells assessed as reduction in viral infection; type: functional, organism-based, Hepacivirus hominis
[26] = Oral bioavailability in Sprague-Dawley rat at 3 mg/kg by LC-MS/MS analysis; type: ADME, organism-based; conditions: in vivo
[27] = Cmax in Sprague-Dawley rat at 3 mg/kg, po and measured upto 24 hrs by LC-MS/MS analysis; type: ADME, organism-based; conditions: in vivo
[28] = Clearance in Sprague-Dawley rat at 0.5 mg/kg, iv by LC-MS/MS analysis; type: ADME, organism-based; conditions: in vivo
[29] = Volume of distribution at steady state in Sprague-Dawley rat at 3 mg/kg, iv measured up to 24 hrs by LC-MS/MS analysis; type: ADME, organism-based; conditions: in vivo, read-out: Vdss
[30] = AUC in Sprague-Dawley rat at 5 mg/kg, po measured upto 24 hrs by LC/MS/MS analysis; type: ADME, organism-based; conditions: in vivo
[31] = AUC in Beagle dog at 5 mg/kg, po measured upto 24 hrs by LC/MS-MS analysis; type: ADME, organism-based, Canis lupus familiaris; conditions: in vivo
[32] = AUC (0 to infinity) in liver to plasma of Sprague-Dawley rat at 3 mg/kg,po; type: ADME, organism-based; conditions: in vivo
[33] = tested on: Hepatitis C virus; assay: Antiviral activity against Hepatitis C virus infected in human Huh7.5 cells pretreated […] for 2 hrs followed by viral infection for 1 hrs by plaque assay; type: functional, organism-based, Hepacivirus hominis
[34] = AUC in Beagle dog at 2 mg/kg, po; type: ADME, organism-based, Canis lupus familiaris; conditions: in vivo
[35] = Clearance in Sprague-Dawley rat at 2 mg/kg, iv by LC-MS/MS analysis; type: ADME, organism-based; conditions: in vivo
[36] = Clearance in Beagle dog at 2 mg/kg, iv by LC-MS/MS analysis; type: ADME, organism-based, Canis lupus familiaris; conditions: in vivo
[37] = Half life in Cynomolgus monkey at 1.0 mg/kg,iv or 1.25 mg/kg, po; type: ADME, organism-based, Macaca fascicularis; conditions: in vivo
[38] = Half life in human liver microsomes at 1 uM by LC-MS/MS analysis; type: ADME, Microsome
[39] = AUC in Sprague-Dawley rat plasma […] at 10 mg/kg, po administered via gavage by LC-MS/MS analysis; type: ADME, organism-based; conditions: in vivo

## Cc1ccc2nc(-c3ccc4nc(-c5ccc(NC(=O)c6cc(C(F)(F)F)cc(C(F)(F)F)c6)cc5)sc4c3)sc2c1S(=O)(=O)O
[1]
  IC50: 5 nM

## CC(C)(C)NC(=O)N[C@H](C(=O)N1C[C@H]2[C@@H]([C@H]1C(=O)NC(CC1CCC1)C(=O)C(N)=O)C2(C)C)C(C)(C)C (stereo partly drawn) [BOCEPREVIR]
[2]
  Ki: 6 nM
[3]
  Ki: 6 nM
[4]
  Ki: 6 nM

## CC(C)(C)[C@@H]1NC(=O)O[C@@H]2CCC[C@H]2OC/C=C/C(F)(F)c2nc3ccccc3nc2O[C@@H]2C[C@@H](C(=O)N[C@]3(C(=O)NS(=O)(=O)C4(C)CC4)C[C@H]3C(F)F)N(C2)C1=O
[5]
  IC50: 8.9 nM
[6]
  bioavailability: 90%
[7]
  bioavailability: 95%
[8]
  AUC: 22 µM·h
[2]
  Ki: 0.075 nM
[4]
  Ki: 0.96 nM
[9]
  Ki: 0.063 nM
[10]
  IC50: 7900 nM
[11]
  IC50: 3.8 nM
[12]
  IC50: 4.4 nM
[13]
  half-life: 2.8 h
[14]
  half-life: 0.6 h
[15]
  Ki: 0.053 nM
[16]
  Ki: 0.92 nM and 0.092 nM
[17]
  Ki: 0.11 nM
[18]
  IC50: 6.1 nM
[19]
  IC50: 8.1 nM
[20]
  IC50: 11.3 nM
[21]
  EC50: 0.24 nM

## CC(C)Oc1ccc(-c2nc(O[C@@H]3C[C@H]4C(=O)N[C@]5(C(=O)NS(=O)(=O)C6(C)CC6)C[C@H]5/C=C\CCCCC[C@H](NC(=O)OC5CCCC5)C(=O)N4C3)c3oc4ccccc4c3n2)cc1
[5]
  IC50: 0.6 nM
[10]
  IC50: 600 nM
[12]
  IC50: 0.6 nM
[18]
  IC50: 0.6 nM
[19]
  IC50: 0.6 nM
[20]
  IC50: 0.6 nM
[22]
  EC50: 1.6 nM
[23]
  EC50: 1.6 nM

## COc1ccc2c(O[C@@H]3C[C@H]4C(=O)N[C@]5(C(=O)NS(=O)(=O)C6CC6)C[C@H]5/C=C\CCCCC[C@H](CC(=O)N5CCCC(F)(F)C5)C(=O)N4C3)cc(-c3nc(C(C)C)cs3)nc2c1C
[24]
  EC50: 0.04 nM
[25]
  EC50: 0.7 nM

## C=C[C@@H]1C[C@]1(NC(=O)[C@@H]1C[C@@H](Oc2cc(-c3csc(NC(=O)C(C)C)n3)nc3c(Br)c(OC)ccc23)CN1C(=O)[C@@H](NC(=O)OC1CCCC1)C(C)(C)C)C(=O)O
[26]
  bioavailability: 40%
[27]
  Cmax: 0.4 µM
[13]
  half-life: 1.2 h
[28]
  clearance: 1.2 L/h/kg
[29]
  Vd: 1.2 L/kg
[30]
  AUC: 1.55 µM·h
[31]
  AUC: 13 µM·h
[32]
  AUC: 40 µM·h

## CCC[C@H](NC(=O)[C@@H]1[C@H]2CCC[C@H]2CN1C(=O)[C@@H](NC(=O)[C@@H](NC(=O)c1cnccn1)C1CCCCC1)C(C)(C)C)C(=O)C(=O)NC1CC1
[5]
  IC50: 354 nM
[33]
  EC50: 15 nM
[6]
  bioavailability: 25%
[7]
  bioavailability: 40.7%
[8]
  AUC: 3.34 µM·h
[34]
  AUC: 40.7 µM·h
[35]
  clearance: 3.24 L/h/kg
[36]
  clearance: 2.52 L/h/kg

## C=C[C@@H]1C[C@]1(NC(=O)[C@@H]1C[C@@H](Oc2cc(-c3ccccc3)nc3cc(OC)ccc23)CN1C(=O)[C@@H](CC(=O)N1CCCCC1)C(C)(C)C)C(=O)NS(=O)(=O)C1CC1 [SOVAPREVIR]
[9]
  Ki: 0.06 nM
[12]
  IC50: 11 nM
[13]
  half-life: > 90 h
[32]
  AUC: > 505 µM·h
[14]
  half-life: 115 h
[37]
  half-life: 10.4 h
[38]
  half-life at 1 µM: 1.77 h
[39]
  AUC: 339 µM·h

## COc1cnc(O[C@@H]2C[C@H]3C(=O)N[C@]4(C(=O)NS(=O)(=O)C5CC5)CC4/C=C\CCCCC[C@H](NC(=O)OC(C)(C)C)C(=O)N3C2)c2cc(Cl)ccc12 (stereo partly drawn)
[22]
  IC50: 51 nM
